According to the PolyMetriX glass transition set:
± gives the standard deviation of the reports.

| Structure (SMILES) | glass transition temperature [°C] |
| --- | --- |
| *CC(*)CCC1CCCCC1 (repeat unit) | 40.00 |
| *Oc1ccc(-c2ccc(OC(=O)c3ccc(C(=O)c4ccc(C(*)=O)cc4)cc3)c(-c3ccccc3)c2)cc1-c1ccccc1 (repeat unit) | 184.50 |
| *c1ccc(Oc2ccc(-c3nc4ccc(-c5ccc6nc(*)c(-c7ccccc7)nc6c5)cc4nc3-c3ccccc3)cc2)cc1 (repeat unit) | 306.00 |
| *O[Si](C)(C)O[Si](C)(C)Oc1c(C)cc(-c2cc(C)c(*)c(C)c2)cc1C (repeat unit) | 55.00 |
| *CC1CCCC(COC(=O)c2ccc(C(=O)O*)cc2)C1 (repeat unit) | 75.00 |
| *N=P(*)(CC)c1ccccc1 (repeat unit) | 20.00 |
| *CCCCNC(=O)CC(=O)N* (repeat unit) | 73.00 |
| */C(C)=C(/*)CCC (repeat unit) | 200.00 |
| *Oc1ccc(C(C)(C)c2ccc(Oc3ccc(C(=O)c4c(C(=O)c5ccc(*)cc5)c(-c5ccccc5)c(-c5ccc6ccccc6c5)c(-c5ccc6ccccc6c5)c4-c4ccccc4)cc3)cc2)cc1 (repeat unit) | 264.00 |
| *c1cccc(-c2cccc(C(F)(F)C(F)(F)C(*)(F)F)c2)c1 (repeat unit) | 45.00 |
| *c1ccc(Oc2ccc(C3(c4ccc(Oc5ccc(N6C(=O)c7ccc(Oc8c(C)cc(C(C)(C)c9cc(C)c(Oc%10ccc%11c(c%10)C(=O)N(*)C%11=O)c(C)c9)cc8C)cc7C6=O)cc5)cc4)CC4CCC3C4)cc2)cc1 (repeat unit) | 265.00 |
| *CC(*)C(=O)OCCCCC (repeat unit) | -57.00 |
| *O[Si](*)(C)CCC (repeat unit) | -120.00 |
| *c1ccc(N(c2ccc(C#N)cc2)c2ccc(N3C(=O)c4ccc(Oc5ccc6c(c5)C(=O)N(*)C6=O)cc4C3=O)cc2)cc1 (repeat unit) | 304.00 |
| *C(=O)Nc1ccc(-c2ccc(N3C(=O)CC(N4C(=O)c5ccc(*)cc5C4=O)C3=O)cc2)cc1 (repeat unit) | 219.00 |
| *c1ccc(C(c2ccc(N3C(=O)c4ccc(-c5ccc6c(c5)C(=O)N(*)C6=O)cc4C3=O)cc2)(C(F)(F)F)C(F)(F)F)cc1 (repeat unit) | 343.00 |
| *C(=O)Nc1ccc(C(c2ccc(NC(=O)c3ccc4c(c3)C(=O)N(c3c(C)cc(-c5cc(C)c(N6C(=O)c7ccc(*)cc7C6=O)c6ccccc56)c5ccccc35)C4=O)cc2)(C(F)(F)F)C(F)(F)F)cc1 (repeat unit) | 250.00 |

| Structure (SMILES) | glass transition temperature [°C] |
| --- | --- |
| *C(=O)c1ccc2c(c1)C(=O)N(c1ccc(/C=C/c3ccc(N4C(=O)c5ccc(*)cc5C4=O)cc3)cc1)C2=O (repeat unit) | 303.00 |
| *OP(=O)(Oc1ccc(C)cc1)Oc1c(Br)cc(C(c2cc(Br)c(*)c(Br)c2)(C(F)(F)F)C(F)(F)F)cc1Br (repeat unit) | 146.00 |
| *OC(CCOc1ccccc1)CC(*)=O (repeat unit) | 20.00 |
| *c1ccc(Oc2ccc(S(=O)(=O)c3ccc(Oc4ccc(-c5c6c(c(*)c7ccccc57)C(=O)N(c5ccccc5-c5ccccc5)C6=O)cc4)cc3)cc2)cc1 (repeat unit) | 278.00 |
| *c1cccc(Cc2cccc(N3C(=O)c4ccc([Si](C)(C)c5ccc(-c6ccc([Si](C)(C)c7ccc8c(c7)C(=O)N(*)C8=O)cc6)cc5)cc4C3=O)c2)c1 (repeat unit) | 285.00 |
| *c1c(C)cc(Cc2cc(C)c(N3C(=O)c4ccc(Oc5c(C)cc(Cc6cc(C)c(Oc7ccc8c(c7)C(=O)N(*)C8=O)c(C)c6)cc5C)cc4C3=O)c(C)c2)cc1C (repeat unit) | 264.00 |
| *Oc1cc(Cl)c(C(C)(C)c2c(Cl)cc(OC(*)=O)cc2Cl)c(Cl)c1 (repeat unit) | 240.00 |
| *N=P(*)(C)c1ccccc1 (repeat unit) | 37.00 |
| *c1ccc(Oc2ccc3ccccc3c2-c2c(Oc3ccc(N4C(=O)c5ccc(NC(=O)Nc6cccc(NC(=O)Nc7ccc8c(c7)C(=O)N(*)C8=O)n6)cc5C4=O)cc3)ccc3ccccc23)cc1 (repeat unit) | 283.00 |
| *C(=O)c1ccc2c(c1)C(=O)N(c1c(C)cc(Cc3cc(C)c(N4C(=O)c5ccc(*)cc5C4=O)c(C)c3)cc1C)C2=O (repeat unit) | 320.00 ± 16 |
| *c1ccc(NC2CC(=O)N(c3ccc(Cc4ccc(N5C(=O)CC(Nc6ccc(-c7nc(-c8ccc(/N=N/c9ccc([N+](=O)[O-])cc9)cc8)[nH]c7*)cc6)C5=O)cc4)cc3)C2=O)cc1 (repeat unit) | 258.00 |
| *OC(CC(*)=O)C(C)(Cl)Cl (repeat unit) | 109.00 |
| *c1ccc(-c2ccc(-c3nc4ccc(-c5ccc6nc(*)c(-c7ccccc7)nc6c5)cc4nc3-c3ccccc3)cc2)cc1 (repeat unit) | 404.00 |
| *CC(*)(C)C(=O)OCC(CC)CCCC (repeat unit) | -10.00 |
| *CC(*)c1ccc(C(=O)CCCC)cc1 (repeat unit) | 70.00 |
| *CCCCCN1C(=O)c2ccc(C(c3ccc4c(c3)C(=O)N(*)C4=O)(C(F)(F)F)C(F)(F)F)cc2C1=O (repeat unit) | 180.00 |

Other lines, results leading:

| glass transition temperature [°C] | Structure (SMILES) |
| --- | --- |
| 124.00 | *Oc1ccc(C(C)(C)c2ccc(OC(=O)c3ccc(C(c4ccc(C(*)=O)cc4)(C(F)(F)F)C(F)(F)F)cc3)cc2)cc1 (repeat unit) |
| 198.00 | *Oc1ccc(/N=N/c2ccc(Cc3ccc(/N=N/c4ccc(OC(=O)c5ccc(C(*)=O)cc5)cc4)cc3[N+](=O)[O-])c([N+](=O)[O-])c2)cc1 (repeat unit) |
| 150.00 | *Oc1ccc(/N=C(\C)c2ccc(Oc3ccc(C(c4ccccc4)(c4ccccc4)c4ccc(Oc5ccc(/C(C)=N/c6ccc(*)cc6)cc5)cc4)cc3)cc2)cc1 (repeat unit) |
| 5.20 | */C=N/c1ccc(C(=O)OCCCCOCCCCOCCCCOC(=O)c2ccc(/N=C/c3ccc4c(c3)c3cc(*)ccc3n4CC(CC)CCCC)cc2)cc1 (repeat unit) |
| 111.00 | *CC(*)(CC(=O)Oc1ccc(OCCCCCCC)cc1)C(=O)Oc1ccc(OCCCCCCC)cc1 (repeat unit) |
| 163.67 | *Oc1c(C)cc(-c2cc(CBr)c(Oc3ccc(C(=O)c4ccc(*)cc4)cc3)c(CBr)c2)cc1CBr (repeat unit) |
| 130.00 | *Oc1ccc(C(C)c2ccc(OC(*)=O)cc2)cc1 (repeat unit) |
| 12.00 | *c1ccc(-c2cc(CCCCCCCC)c(-c3ccc(-c4ccc(-c5sc(-c6ccc([Si](C)(C)[Si](*)(C)C)s6)cc5CCCCCCCC)s4)s3)s2)s1 (repeat unit) |
| 44.00 | *CC(CCCCCCOc1ccc(/N=N/c2ccc(C(F)(F)F)cc2)cc1)COC(=O)CCCCC(=O)O* (repeat unit) |
| 237.00 | *Oc1cccc(NC(=O)c2ccc(C(=O)c3cccc(C(=O)Nc4ccc(*)cc4)c3)cc2)c1 (repeat unit) |
| 117.00 | *SCC(=O)N/N=C/c1ccc(OCCCCCCCCCCOc2ccc(/C=N/NC(=O)CSc3nnc(*)s3)cc2)cc1 (repeat unit) |
| 226.50 | *Oc1ccc(-c2ccc(Oc3ccc(C(=O)c4cccc5cccc(C(=O)c6ccc(*)cc6)c45)cc3)cc2)cc1 (repeat unit) |
| -30.00 | *CC(F)(F)C(F)(F)C(F)(F)COC(=O)c1cc(OCCCCC)cc(C(=O)O*)c1 (repeat unit) |
| 170.00 | *Oc1ccc(C(c2ccccc2)c2ccc(OC(*)=O)cc2)cc1 (repeat unit) |
| 251.00 | *c1ccc(Oc2ccc(C(=O)c3cccc(C(=O)c4ccc(Oc5ccc(-c6c7c(c(*)c8ccccc68)C(=O)N(C)C7=O)cc5)cc4)c3)cc2)cc1 (repeat unit) |
| 47.00 | *Oc1ccc(CC(NC(=O)CCc2ccc(OC(=O)CCCCCCC(*)=O)cc2)C(=O)OCc2ccccc2)cc1 (repeat unit) |
| 216.00 | *c1ccc(Oc2ccc(Oc3ccc(Oc4ccc(-c5cnc6ccc(-c7ccc8ncc(*)nc8c7)cc6n5)cc4)cc3)cc2)cc1 (repeat unit) |
| 138.00 | *OC(COC(=O)c1ccc2cc(C(*)=O)ccc2c1)COc1ccc(/N=N/c2ccc(C#N)cc2)cc1 (repeat unit) |
| 160.00 | *C(=O)N1C(=O)N(C(=O)c2ccc3c(c2)C(=O)N(c2ccc(Oc4ccc(N5C(=O)c6ccc(*)cc6C5=O)cc4)cc2)C3=O)C(CC)(CC)C1=O (repeat unit) |
| 74.00 | *CC(*)c1cc(C(=O)OCCCC)ccc1-c1ccc(OCCCCCCCC)cc1 (repeat unit) |
| 256.00 | *Oc1ccc(NC(=O)c2cccc(C(=O)Nc3ccc(Oc4ccc(C5(c6ccc(*)cc6)CC6CCC5C6)cc4)cc3)c2)cc1 (repeat unit) |
| 119.00 | *CC(O)COc1ccc(C(C)(C)c2ccc(OCC(O)COc3cccc(NC(=O)C(=O)Nc4cccc(O*)c4)c3)cc2)cc1 (repeat unit) |
| 136.00 | *c1ccc2c(c1)Sc1cc(-c3sc4cc(*)sc4c3CCCCC)ccc1N2CCCCCCCCCCCC (repeat unit) |
| 255.00 | *c1cccc(N2C(=O)c3ccc(Oc4ccc(Oc5ccc6c(c5)C(=O)N(*)C6=O)cc4)cc3C2=O)c1 (repeat unit) |
| 158.00 | *Oc1ccc(C(=O)Nc2cc(SCCC#N)c(NC(=O)c3ccc(*)cc3)cc2SCCC#N)cc1 (repeat unit) |
| 89.00 | *CCCCCCCCCN1C(=O)c2ccc(Oc3ccc4c(c3)C(=O)N(*)C4=O)cc2C1=O (repeat unit) |
| 238.00 | *c1ccc(Oc2ccc(N3C(=O)c4cccc(Oc5c(Oc6cccc7c6C(=O)N(*)C7=O)cc(C(C)(C)C)cc5C(C)(C)C)c4C3=O)cc2)cc1 (repeat unit) |
| 186.00 | *Oc1ccc(Oc2ccc(C(=O)c3ccc(-c4ccc(C(=O)c5ccc(*)cc5)cc4)cc3)cc2)cc1-c1ccccc1 (repeat unit) |
| 184.00 | *OC(=O)Oc1ccc(S(=O)(=O)c2ccc(OC(=O)OC3CC4CC(*)CC(C3)O4)cc2)cc1 (repeat unit) |
